How the values were obtained:
KB = experiment: Cytotoxicity against human KB cells assessed as reduction in cell number after 3 days; format: functional; details: 72 h, read-out: ID50 (the source's name)
[1] = target: DNA topoisomerase 2-alpha (Homo sapiens) (UniProt P11388); experiment: Inhibition of human DNA topoisomerase 2
[2] = target: DNA topoisomerase 2-alpha (Homo sapiens) (UniProt P11388); experiment: Inhibition of strand rejoining activity of human DNA topoisomerase 2 assessed as protein-DNA complex formation at 10 uM by cell-based assay; set-up: scale not given: the % may be the effect or the level left
[3] = target: DNA topoisomerase 2-alpha (Homo sapiens) (UniProt P11388); experiment: Inhibition of strand rejoining activity of human DNA topoisomerase 2 assessed as protein-DNA complex formation at 20 uM by cell-based assay; set-up: scale not given: the % may be the effect or the level left
EMT6 = experiment: Ratio of cytotoxicity for normally oxygenated mouse EMT6 cells over hypoxic mouse EMT6 cells; format: functional

DNA topoisomerase 2-alpha (Homo sapiens), sequence (P11388 whole entry): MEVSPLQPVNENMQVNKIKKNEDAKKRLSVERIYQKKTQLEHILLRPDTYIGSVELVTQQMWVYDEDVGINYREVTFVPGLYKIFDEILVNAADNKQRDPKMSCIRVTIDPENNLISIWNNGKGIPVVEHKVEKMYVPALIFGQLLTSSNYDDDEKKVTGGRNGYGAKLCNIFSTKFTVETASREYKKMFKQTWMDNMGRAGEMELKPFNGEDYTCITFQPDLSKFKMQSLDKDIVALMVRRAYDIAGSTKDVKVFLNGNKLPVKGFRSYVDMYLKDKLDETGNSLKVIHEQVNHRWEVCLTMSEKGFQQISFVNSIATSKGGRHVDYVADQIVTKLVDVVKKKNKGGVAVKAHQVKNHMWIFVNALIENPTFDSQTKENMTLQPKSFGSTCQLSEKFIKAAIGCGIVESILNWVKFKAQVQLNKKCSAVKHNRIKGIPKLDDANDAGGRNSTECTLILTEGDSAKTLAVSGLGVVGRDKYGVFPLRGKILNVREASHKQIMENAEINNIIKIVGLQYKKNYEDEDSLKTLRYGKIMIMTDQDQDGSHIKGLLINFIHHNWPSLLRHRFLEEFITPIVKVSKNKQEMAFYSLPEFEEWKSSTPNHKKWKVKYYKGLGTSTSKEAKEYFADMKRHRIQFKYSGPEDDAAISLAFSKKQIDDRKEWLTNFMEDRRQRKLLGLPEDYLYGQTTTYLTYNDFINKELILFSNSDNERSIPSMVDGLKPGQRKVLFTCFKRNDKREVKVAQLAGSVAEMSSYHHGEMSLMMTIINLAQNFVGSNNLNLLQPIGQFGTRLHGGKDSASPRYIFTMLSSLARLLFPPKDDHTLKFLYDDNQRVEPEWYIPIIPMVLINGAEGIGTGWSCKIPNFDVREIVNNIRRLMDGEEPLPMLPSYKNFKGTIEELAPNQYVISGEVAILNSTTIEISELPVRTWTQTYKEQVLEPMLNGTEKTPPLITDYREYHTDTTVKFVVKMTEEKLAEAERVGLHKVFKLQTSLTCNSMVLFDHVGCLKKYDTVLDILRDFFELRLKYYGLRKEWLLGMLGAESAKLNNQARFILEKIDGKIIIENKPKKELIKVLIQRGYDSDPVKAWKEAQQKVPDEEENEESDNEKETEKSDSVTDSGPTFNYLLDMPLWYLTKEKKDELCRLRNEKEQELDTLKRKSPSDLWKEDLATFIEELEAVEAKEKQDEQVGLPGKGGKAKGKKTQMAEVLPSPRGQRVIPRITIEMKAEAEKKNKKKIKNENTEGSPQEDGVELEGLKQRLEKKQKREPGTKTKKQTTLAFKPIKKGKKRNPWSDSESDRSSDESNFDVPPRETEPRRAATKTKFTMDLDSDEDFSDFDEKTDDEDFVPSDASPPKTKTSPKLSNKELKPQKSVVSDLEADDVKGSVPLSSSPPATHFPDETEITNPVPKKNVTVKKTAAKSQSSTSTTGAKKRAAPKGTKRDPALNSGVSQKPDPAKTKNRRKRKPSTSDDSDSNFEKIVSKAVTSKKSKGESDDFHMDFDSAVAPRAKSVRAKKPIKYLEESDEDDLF

COc1cc([C@@H]2c3cc4c(cc3[C@@H](Nc3cc(C(F)(F)F)cc(C(F)(F)F)c3)[C@H]3COC(=O)[C@H]23)OCO4)cc(OC)c1O
IC50 (KB): 3.4 µM
ID50 [1]: > 100 µM
Activity [2]: 21%

COc1cc([C@@H]2c3cc4c(cc3[C@H](O)[C@H]3COC(=O)[C@H]23)OCO4)cc(OC)c1O
ID50 [1]: > 100 µM
Activity [2]: 1.1%

COc1cc([C@@H]2c3cc4c(cc3[C@@H](Nc3cncc5ccccc35)[C@H]3COC(=O)[C@H]23)OCO4)cc(OC)c1O
IC50 (KB): < 1 µM
ID50 [1]: 50 µM
Activity [2]: 123%

COc1cc([C@@H]2c3cc4c(cc3[C@@H](Oc3ccc(F)cc3)[C@H]3COC(=O)[C@H]23)OCO4)cc(OC)c1O
IC50 (KB): 0.5 µM
ID50 [1]: > 100 µM
Activity [2]: 57%

COc1cc([C@@H]2c3cc4c(cc3[C@@H](Nc3ccc([N+](=O)[O-])cc3)[C@H]3COC(=O)[C@H]23)OCO4)cc(OC)c1O
IC50 (KB): 0.5 µM
ID50 [1]: 10 µM
Activity [2]: 323%

CCOC(=O)c1ccc(N[C@@H]2c3cc4c(cc3[C@@H](c3cc(OC)c(O)c(OC)c3)[C@H]3C(=O)OC[C@@H]32)OCO4)cc1
IC50 (KB): 0.84 µM
ID50 [1]: 5 µM
Activity [2]: 207%

COc1cc([C@@H]2c3cc4c(cc3[C@@H](Nc3ccc(F)cc3)[C@H]3COC(=O)[C@H]23)OCO4)cc(OC)c1O
IC50 (KB): 0.2 µM
ID50 [1]: 5 µM
Activity [2]: 2.13%

COc1cc([C@@H]2c3cc4c(cc3[C@@H](O)[C@H]3COC(=O)[C@H]23)OCO4)cc(OC)c1O
ID50 [1]: > 100 µM
Activity [2]: 0%

CCOC(=O)c1ccc(N[C@@H]2c3cc4c(cc3[C@@H](C3=CC(=O)C(=O)C(OC)=C3)[C@H]3C(=O)OC[C@@H]32)OCO4)cc1
IC50 (KB): 1.4 µM
ID50 [1]: 25 µM
Activity [3]: 110%

COC1=CC([C@@H]2c3cc4c(cc3[C@@H](Nc3ccc(CC#N)cc3)[C@H]3COC(=O)[C@@H]32)OCO4)=CC(=O)C1=O
IC50 (KB): 2 µM
ID50 [1]: 25 µM
Activity [3]: 41%

COc1cc([C@@H]2c3cc4c(cc3[C@@H](O[C@@H]3O[C@@H]5CO[C@@H](C)O[C@H]5[C@H](O)[C@H]3O)[C@H]3COC(=O)[C@H]23)OCO4)cc(OC)c1O [ETOPOSIDE]
Activity [2]: 100%
Ratio (EMT6): 30

COC1=CC([C@@H]2c3cc4c(cc3[C@@H](Nc3cccc([N+](=O)[O-])c3)[C@H]3COC(=O)[C@@H]32)OCO4)=CC(=O)C1=O
IC50 (KB): > 4 µM
ID50 [1]: 50 µM
Activity [3]: 33%

COC(=O)c1cccc(N[C@@H]2c3cc4c(cc3[C@@H](c3cc(OC)c(O)c(OC)c3)[C@H]3C(=O)OC[C@@H]32)OCO4)c1
IC50 (KB): 2.7 µM
ID50 [1]: 50 µM
Activity [2]: 129%

COc1cc([C@@H]2c3cc4c(cc3[C@@H](Nc3ccc(C#N)cc3)[C@H]3COC(=O)[C@H]23)OCO4)cc(O)c1O
IC50 (KB): 1.8 µM
ID50 [1]: 25 µM
Activity [3]: 146%

COc1cc([C@@H]2c3cc4c(cc3[C@@H](Nc3ccc(C#N)cc3)[C@H]3COC(=O)[C@H]23)OCO4)cc(OC)c1O
IC50 (KB): 0.6 µM
Activity [2]: 211%

COc1cc([C@@H]2c3cc4c(cc3[C@@H](Nc3cccc(Br)c3)[C@H]3COC(=O)[C@H]23)OCO4)cc(OC)c1O
Activity [2]: 62%

COc1cc([C@@H]2c3cc4c(cc3[C@@H](Nc3ccc([N+](=O)[O-])cc3)[C@H]3COC(=O)[C@H]23)OCO4)cc(O)c1O
IC50 (KB): 1.3 µM
ID50 [1]: 10 µM
Activity [3]: 200%

COC1=CC([C@@H]2c3cc4c(cc3[C@@H](Nc3cc(F)cc(F)c3)[C@H]3COC(=O)[C@@H]32)OCO4)=CC(=O)C1=O
IC50 (KB): 2 µM
ID50 [1]: 50 µM
Activity [3]: 57%

COc1cc([C@@H]2c3cc4c(cc3[C@@H](Nc3ccccc3)[C@H]3COC(=O)[C@H]23)OCO4)cc(O)c1O
IC50 (KB): 1.8 µM
ID50 [1]: 25 µM
Activity [3]: 128%

COc1cc([C@@H]2c3cc4c(cc3[C@@H](Nc3ccccc3F)[C@H]3COC(=O)[C@H]23)OCO4)cc(OC)c1O
Activity [2]: 121%

COC1=CC([C@@H]2c3cc4c(cc3[C@H](O)[C@H]3COC(=O)[C@@H]32)OCO4)=CC(=O)C1=O
IC50 (KB): 1.9 µM
ID50 [1]: 10 µM
Activity [3]: 4%

COc1cc([C@@H]2c3cc4c(cc3[C@@H](Nc3cccc(F)c3)[C@H]3COC(=O)[C@H]23)OCO4)cc(OC)c1O
ID50 [1]: 50 µM
Activity [2]: 158%

COC1=CC([C@@H]2c3cc4c(cc3[C@@H](Nc3ccc([N+](=O)[O-])cc3)[C@H]3COC(=O)[C@@H]32)OCO4)=CC(=O)C1=O
IC50 (KB): 1.3 µM
ID50 [1]: 10 µM
Activity [3]: 128%

COC1=CC([C@@H]2c3cc4c(cc3[C@@H](Nc3cncc5ccccc35)[C@H]3COC(=O)[C@@H]32)OCO4)=CC(=O)C1=O
IC50 (KB): 1.5 µM
ID50 [1]: 100 µM
Activity [3]: 95%

COc1cc([C@@H]2c3cc4c(cc3[C@@H](Nc3ccc(CC#N)cc3)[C@H]3COC(=O)[C@H]23)OCO4)cc(O)c1O
IC50 (KB): 1.2 µM
ID50 [1]: 25 µM
Activity [3]: 109%

COC(=O)c1cccc(N[C@@H]2c3cc4c(cc3[C@@H](c3cc(O)c(O)c(OC)c3)[C@H]3C(=O)OC[C@@H]32)OCO4)c1
IC50 (KB): 2.3 µM
ID50 [1]: 25 µM
Activity [3]: 94%

COC1=CC([C@@H]2c3cc4c(cc3[C@@H](Oc3ccc(F)cc3)[C@H]3COC(=O)[C@@H]32)OCO4)=CC(=O)C1=O
IC50 (KB): 0.9 µM
ID50 [1]: 100 µM
Activity [3]: 30%

COC1=CC([C@@H]2c3cc4c(cc3[C@@H](Nc3cc(C(F)(F)F)cc(C(F)(F)F)c3)[C@H]3COC(=O)[C@@H]32)OCO4)=CC(=O)C1=O
IC50 (KB): 5.5 µM
ID50 [1]: > 100 µM
Activity [3]: 4%

COc1cc([C@@H]2c3cc4c(cc3[C@@H](Nc3cccc([N+](=O)[O-])c3)[C@H]3COC(=O)[C@H]23)OCO4)cc(OC)c1O
IC50 (KB): 1 µM
ID50 [1]: 50 µM
Activity [2]: 230%

COc1cc([C@@H]2c3cc4c(cc3[C@@H](Nc3ccc(Cl)cc3)[C@H]3COC(=O)[C@H]23)OCO4)cc(OC)c1O
ID50 [1]: 50 µM
Activity [2]: 99%

COc1cc([C@@H]2c3cc4c(cc3[C@@H](Nc3ccccc3)[C@H]3COC(=O)[C@H]23)OCO4)cc(OC)c1O
IC50 (KB): 0.7 µM
ID50 [1]: 25 µM
Activity [2]: 243%

COc1cc([C@@H]2c3cc4c(cc3[C@@H](Nc3cc(F)cc(F)c3)[C@H]3COC(=O)[C@H]23)OCO4)cc(OC)c1O
ID50 [1]: 50 µM
Activity [2]: 115%

COC(=O)c1ccc(N[C@@H]2c3cc4c(cc3[C@@H](c3cc(OC)c(O)c(OC)c3)[C@H]3C(=O)OC[C@@H]32)OCO4)cc1O
IC50 (KB): 5.8 µM
ID50 [1]: 50 µM
Activity [2]: 129%

COC1=CC([C@@H]2c3cc4c(cc3[C@@H](Nc3ccc(C(C)=O)cc3)[C@H]3COC(=O)[C@@H]32)OCO4)=CC(=O)C1=O
IC50 (KB): 1.5 µM
ID50 [1]: 50 µM
Activity [3]: 69%

Source: ChEMBL document CHEMBL1149733, “Antitumor agents, 130, Novel 4 beta-arylamino derivatives of 3',4'-didemethoxy-3',4'-dioxo-4-deoxypodophyllotoxin as potent inhibitors of human DNA topoisomerase II” (1992)
